Source: article PMC9571063 (Molecules, 2022)
“And” between values parts separate entries of the source, which are not always exact repeats. Equal values may be shown once. Where a name gives a salt, the structure may show the parent alone. Read-outs that look alike come from different tables or passages of the source.

What was measured:
[1] = molecular target: T1, HsCLK2 (Homo sapiens, UniProt P49760); experiment: kinase inhibition study by Eurofins; type: biochemical; conditions: duplicate
T1 construct: purchased Eurofins (contract assay)
Protocol: (§1) Several inhibition studies for human kinases (HsCLK2, HsCLK3, HsCLK4), as well as the KINOMEscan^SM Assaywere performed by the Eurofins company, following protocols reported on their website.

[2] = molecular target: T2, HsCLK3 (Homo sapiens, UniProt P49761); experiment: kinase inhibition study by Eurofins; type: biochemical; conditions: duplicate
T2 construct: purchased Eurofins (contract assay)
Protocol: as §1

[3] = molecular target: T3, HsCLK4 (Homo sapiens, UniProt Q9HAZ1); experiment: kinase inhibition study by Eurofins; type: biochemical
T3 construct: purchased Eurofins (contract assay)
Protocol: as §1

[4] = molecular target: T4, Hs_CDK9/CyclinT (Homo sapiens, UniProt P50750); experiment: ADP-Glo kinase assay, primary screen; type: biochemical; conditions: n=2, read-out: % of residual activity Hs_CDK9/CyclinT
T4 construct: host or cells: Sf9 insect cells (baculovirus)

[5] = molecular target: T5, Hs_PIM1 (Homo sapiens, UniProt P11309); experiment: ADP-Glo kinase assay, primary screen; type: biochemical; conditions: n=2, read-out: % of residual activity Hs_PIM1
T5 construct: host or cells: Sf9 insect cells (baculovirus)

[6] = cytotoxic assay, nuclei count (Hoechst, HCS); type: cell-based; conditions: human, Caco-2 cells (colorectal adenocarcinoma); 48 h treatment; read-out: Cytotoxic studies IC50 Caco2
[7] = cytotoxic assay, nuclei count (Hoechst, HCS); type: cell-based; conditions: human, MDA-MB-231 cells (breast carcinoma); 48 h treatment; read-out: Cytotoxic studies IC50 MDA-MB-231
[8] = test system: Human skin fibroblasts; experiment: cytotoxic assay, nuclei count (Hoechst, HCS); type: cell-based; conditions: summary of Table S2
[9] = molecular target: T6, ABL1(Y253F)-phosphorylated (Homo sapiens, UniProt P00519, Y253F); experiment: KINOMEscan; type: binding; conditions: read-out: Percent Control
T6 construct: purchased Eurofins DiscoverX KINOMEscan (scanMAX 468)

[10] = molecular target: T7, ACVRL1 (Homo sapiens, UniProt P37023); experiment: KINOMEscan; type: binding; conditions: read-out: Percent Control
T7 construct: purchased Eurofins DiscoverX KINOMEscan (scanMAX 468)

[11] = molecular target: T8, EGFR(E746-A750del) (Homo sapiens, UniProt P00533, DEL746-750); experiment: KINOMEscan; type: binding; conditions: read-out: Percent Control
T8 construct: purchased Eurofins DiscoverX KINOMEscan (scanMAX 468)

[12] = molecular target: T9, EGFR(L858R) (Homo sapiens, UniProt P00533, L858R); experiment: KINOMEscan; type: binding; conditions: read-out: Percent Control
T9 construct: purchased Eurofins DiscoverX KINOMEscan (scanMAX 468)

[13] = molecular target: T10, ERK2 (Homo sapiens, UniProt P28482); experiment: KINOMEscan; type: binding; conditions: read-out: Percent Control
T10 construct: purchased Eurofins DiscoverX KINOMEscan (scanMAX 468)

[14] = molecular target: T11, INSR (Homo sapiens, UniProt P06213); experiment: KINOMEscan; type: binding; conditions: read-out: Percent Control
T11 construct: purchased Eurofins DiscoverX KINOMEscan (scanMAX 468)

[15] = molecular target: T12, MET(M1250T) (Homo sapiens, UniProt P08581, M1250T); experiment: KINOMEscan; type: binding; conditions: read-out: Percent Control
T12 construct: purchased Eurofins DiscoverX KINOMEscan (scanMAX 468)

[16] = molecular target: T13, MST3 (Homo sapiens, UniProt Q9Y6E0); experiment: KINOMEscan; type: binding; conditions: read-out: Percent Control
T13 construct: purchased Eurofins DiscoverX KINOMEscan (scanMAX 468)

[17] = molecular target: T14, NIM1 (Homo sapiens, UniProt Q8IY84); experiment: KINOMEscan; type: binding; conditions: read-out: Percent Control
T14 construct: purchased Eurofins DiscoverX KINOMEscan (scanMAX 468)

[18] = molecular target: T15, p38-gamma (Homo sapiens, UniProt P53778); experiment: KINOMEscan; type: binding; conditions: read-out: Percent Control
T15 construct: purchased Eurofins DiscoverX KINOMEscan (scanMAX 468)

[19] = molecular target: T16, PIK3CA(E545K) (Homo sapiens, UniProt P42336, E545K); experiment: KINOMEscan; type: binding; conditions: read-out: Percent Control
T16 construct: purchased Eurofins DiscoverX KINOMEscan (scanMAX 468)

[20] = molecular target: T17, PLK4 (Homo sapiens, UniProt O00444); experiment: KINOMEscan; type: binding; conditions: read-out: Percent Control
T17 construct: purchased Eurofins DiscoverX KINOMEscan (scanMAX 468)

[21] = molecular target: T18, RSK2(Kin.Dom.2-C-terminal) (Homo sapiens, UniProt P51812); experiment: KINOMEscan; type: binding; conditions: read-out: Percent Control
T18 construct: RSK2(Kin.Dom.2-C-terminal); purchased Eurofins DiscoverX KINOMEscan (scanMAX 468)

[22] = molecular target: T19, SgK110 (Homo sapiens, UniProt P0C264); experiment: KINOMEscan; type: binding; conditions: read-out: Percent Control
T19 construct: purchased Eurofins DiscoverX KINOMEscan (scanMAX 468)

[23] = molecular target: T20, SLK (Homo sapiens, UniProt Q9H2G2); experiment: KINOMEscan; type: binding; conditions: read-out: Percent Control
T20 construct: purchased Eurofins DiscoverX KINOMEscan (scanMAX 468)

[24] = molecular target: T21, SRC (Homo sapiens, UniProt P12931); experiment: KINOMEscan; type: binding; conditions: read-out: Percent Control
T21 construct: purchased Eurofins DiscoverX KINOMEscan (scanMAX 468)

[25] = molecular target: T22, TBK1 (Homo sapiens, UniProt Q9UHD2); experiment: KINOMEscan; type: binding; conditions: read-out: Percent Control
T22 construct: purchased Eurofins DiscoverX KINOMEscan (scanMAX 468)

[26] = molecular target: T23, TSSK3 (Homo sapiens, UniProt Q96PN8); experiment: KINOMEscan; type: binding; conditions: read-out: Percent Control
T23 construct: purchased Eurofins DiscoverX KINOMEscan (scanMAX 468)

[27] = molecular target: T24, VPS34 (Homo sapiens, UniProt Q8NEB9); experiment: KINOMEscan; type: binding; conditions: read-out: Percent Control
T24 construct: purchased Eurofins DiscoverX KINOMEscan (scanMAX 468)

T4 sequence (P50750 whole entry): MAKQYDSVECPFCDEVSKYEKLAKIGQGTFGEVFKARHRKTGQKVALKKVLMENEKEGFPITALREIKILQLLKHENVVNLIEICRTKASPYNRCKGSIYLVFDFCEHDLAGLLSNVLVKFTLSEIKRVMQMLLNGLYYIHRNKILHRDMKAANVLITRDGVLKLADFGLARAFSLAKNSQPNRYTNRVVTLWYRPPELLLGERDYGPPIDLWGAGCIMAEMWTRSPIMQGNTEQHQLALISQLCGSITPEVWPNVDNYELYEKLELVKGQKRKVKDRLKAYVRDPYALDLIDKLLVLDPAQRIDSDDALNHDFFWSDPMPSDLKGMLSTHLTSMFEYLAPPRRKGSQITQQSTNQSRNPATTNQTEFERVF
T4 sequence (O60563 whole entry partner): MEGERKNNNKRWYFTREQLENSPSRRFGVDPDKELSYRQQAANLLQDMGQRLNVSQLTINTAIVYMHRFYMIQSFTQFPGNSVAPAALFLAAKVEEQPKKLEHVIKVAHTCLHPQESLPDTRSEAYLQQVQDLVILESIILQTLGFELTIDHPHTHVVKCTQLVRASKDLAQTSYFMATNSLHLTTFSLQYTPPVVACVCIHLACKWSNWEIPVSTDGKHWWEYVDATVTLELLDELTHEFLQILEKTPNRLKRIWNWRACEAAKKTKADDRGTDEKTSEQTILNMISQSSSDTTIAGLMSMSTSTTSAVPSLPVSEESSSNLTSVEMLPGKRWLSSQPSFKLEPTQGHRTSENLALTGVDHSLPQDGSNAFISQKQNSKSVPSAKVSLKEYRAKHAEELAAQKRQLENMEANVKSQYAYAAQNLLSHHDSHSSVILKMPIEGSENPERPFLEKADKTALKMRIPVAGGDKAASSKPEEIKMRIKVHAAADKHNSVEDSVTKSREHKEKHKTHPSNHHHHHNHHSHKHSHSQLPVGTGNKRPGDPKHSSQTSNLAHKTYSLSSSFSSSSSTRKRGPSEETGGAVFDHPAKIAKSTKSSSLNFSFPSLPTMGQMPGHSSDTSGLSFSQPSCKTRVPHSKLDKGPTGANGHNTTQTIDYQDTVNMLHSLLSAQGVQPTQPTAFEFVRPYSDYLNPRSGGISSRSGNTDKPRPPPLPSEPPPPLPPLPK
T1 sequence (P49760 whole entry): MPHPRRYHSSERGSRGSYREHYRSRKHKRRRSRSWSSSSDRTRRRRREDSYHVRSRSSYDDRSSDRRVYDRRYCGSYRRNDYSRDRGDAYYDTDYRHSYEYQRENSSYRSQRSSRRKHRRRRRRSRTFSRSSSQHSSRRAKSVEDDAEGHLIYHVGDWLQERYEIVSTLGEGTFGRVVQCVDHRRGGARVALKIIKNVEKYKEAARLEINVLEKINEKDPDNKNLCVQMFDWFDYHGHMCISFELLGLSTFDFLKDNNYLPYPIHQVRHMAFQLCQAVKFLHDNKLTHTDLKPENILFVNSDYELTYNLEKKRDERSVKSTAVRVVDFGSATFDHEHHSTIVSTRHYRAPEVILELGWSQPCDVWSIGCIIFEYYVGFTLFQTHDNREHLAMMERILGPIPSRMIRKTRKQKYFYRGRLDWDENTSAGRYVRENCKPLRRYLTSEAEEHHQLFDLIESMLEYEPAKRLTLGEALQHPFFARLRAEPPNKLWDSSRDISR
T5 sequence (P11309 whole entry): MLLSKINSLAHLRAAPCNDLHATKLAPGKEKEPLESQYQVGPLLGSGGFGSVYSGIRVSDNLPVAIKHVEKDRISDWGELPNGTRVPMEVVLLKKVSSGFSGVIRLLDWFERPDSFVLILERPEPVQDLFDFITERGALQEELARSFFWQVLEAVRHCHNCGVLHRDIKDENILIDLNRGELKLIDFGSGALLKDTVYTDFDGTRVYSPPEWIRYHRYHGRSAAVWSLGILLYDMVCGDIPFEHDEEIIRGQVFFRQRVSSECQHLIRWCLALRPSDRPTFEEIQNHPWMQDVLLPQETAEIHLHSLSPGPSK
T2 sequence (P49761 whole entry): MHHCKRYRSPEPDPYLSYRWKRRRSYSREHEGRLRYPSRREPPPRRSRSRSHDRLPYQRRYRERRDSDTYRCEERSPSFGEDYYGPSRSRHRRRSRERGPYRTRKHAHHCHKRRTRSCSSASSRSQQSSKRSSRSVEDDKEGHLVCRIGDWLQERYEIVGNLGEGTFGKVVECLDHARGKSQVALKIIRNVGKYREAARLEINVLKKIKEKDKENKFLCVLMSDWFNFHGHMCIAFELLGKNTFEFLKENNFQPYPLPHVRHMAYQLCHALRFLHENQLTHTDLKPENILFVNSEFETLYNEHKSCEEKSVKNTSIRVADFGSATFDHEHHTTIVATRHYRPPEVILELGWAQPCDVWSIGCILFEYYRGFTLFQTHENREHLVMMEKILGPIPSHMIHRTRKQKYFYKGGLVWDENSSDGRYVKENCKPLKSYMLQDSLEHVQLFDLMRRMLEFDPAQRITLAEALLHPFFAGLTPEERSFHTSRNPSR
T3 sequence (Q9HAZ1 whole entry): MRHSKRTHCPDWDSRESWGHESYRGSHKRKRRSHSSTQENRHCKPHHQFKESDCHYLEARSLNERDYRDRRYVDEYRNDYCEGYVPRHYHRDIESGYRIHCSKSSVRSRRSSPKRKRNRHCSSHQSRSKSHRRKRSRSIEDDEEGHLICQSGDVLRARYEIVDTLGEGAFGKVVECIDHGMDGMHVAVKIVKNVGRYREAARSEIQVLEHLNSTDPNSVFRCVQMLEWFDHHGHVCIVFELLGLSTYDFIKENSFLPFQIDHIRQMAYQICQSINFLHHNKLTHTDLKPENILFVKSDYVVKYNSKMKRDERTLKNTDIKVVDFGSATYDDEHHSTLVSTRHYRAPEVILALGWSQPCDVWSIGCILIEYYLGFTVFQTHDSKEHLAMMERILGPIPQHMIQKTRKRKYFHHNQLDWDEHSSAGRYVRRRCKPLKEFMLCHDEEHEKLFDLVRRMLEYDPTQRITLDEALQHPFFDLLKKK
T8 sequence (P00533 with tags, fused parts or gaps DEL746-750 limits assumed): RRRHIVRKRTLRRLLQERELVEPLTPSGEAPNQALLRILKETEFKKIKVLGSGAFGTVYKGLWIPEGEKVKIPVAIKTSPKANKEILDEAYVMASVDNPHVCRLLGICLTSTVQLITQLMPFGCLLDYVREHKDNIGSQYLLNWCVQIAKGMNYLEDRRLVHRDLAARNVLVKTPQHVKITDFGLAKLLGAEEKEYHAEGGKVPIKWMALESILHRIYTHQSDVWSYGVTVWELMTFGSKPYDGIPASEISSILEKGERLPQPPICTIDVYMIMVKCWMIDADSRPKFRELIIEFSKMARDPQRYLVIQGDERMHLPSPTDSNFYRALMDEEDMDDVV
T20 sequence (Q9H2G2 whole entry): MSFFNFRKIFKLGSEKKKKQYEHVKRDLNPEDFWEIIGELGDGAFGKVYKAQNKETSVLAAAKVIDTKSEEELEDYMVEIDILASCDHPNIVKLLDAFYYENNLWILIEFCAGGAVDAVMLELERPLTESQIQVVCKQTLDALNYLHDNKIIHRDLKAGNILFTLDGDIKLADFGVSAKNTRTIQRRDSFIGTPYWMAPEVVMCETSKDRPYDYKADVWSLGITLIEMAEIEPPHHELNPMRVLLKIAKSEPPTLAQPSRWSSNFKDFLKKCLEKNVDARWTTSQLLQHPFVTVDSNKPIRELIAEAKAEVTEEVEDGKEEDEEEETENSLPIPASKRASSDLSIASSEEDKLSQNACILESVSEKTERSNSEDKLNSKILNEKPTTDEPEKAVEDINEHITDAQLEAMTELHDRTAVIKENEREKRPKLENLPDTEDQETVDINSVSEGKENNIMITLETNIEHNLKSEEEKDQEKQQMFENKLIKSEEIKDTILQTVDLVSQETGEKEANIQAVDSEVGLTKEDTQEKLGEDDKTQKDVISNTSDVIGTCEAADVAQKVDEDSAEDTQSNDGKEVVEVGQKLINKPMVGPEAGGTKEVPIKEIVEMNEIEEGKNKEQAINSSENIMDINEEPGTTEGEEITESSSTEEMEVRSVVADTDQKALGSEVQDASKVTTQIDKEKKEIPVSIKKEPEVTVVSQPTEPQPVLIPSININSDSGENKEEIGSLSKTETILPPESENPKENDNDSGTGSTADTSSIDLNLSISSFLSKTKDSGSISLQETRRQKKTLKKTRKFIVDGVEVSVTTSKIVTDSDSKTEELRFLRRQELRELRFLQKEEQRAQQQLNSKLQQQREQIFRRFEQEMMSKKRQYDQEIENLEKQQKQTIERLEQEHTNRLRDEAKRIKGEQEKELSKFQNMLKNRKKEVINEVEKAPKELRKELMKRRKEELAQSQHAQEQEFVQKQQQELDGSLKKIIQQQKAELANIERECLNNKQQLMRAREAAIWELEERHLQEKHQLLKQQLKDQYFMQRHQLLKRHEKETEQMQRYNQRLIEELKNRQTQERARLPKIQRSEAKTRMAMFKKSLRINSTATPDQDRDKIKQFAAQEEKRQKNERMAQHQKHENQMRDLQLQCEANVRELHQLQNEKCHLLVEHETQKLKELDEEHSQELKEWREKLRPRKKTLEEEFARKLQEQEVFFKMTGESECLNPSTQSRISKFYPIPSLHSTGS
T18 sequence (P51812 398-740 limits assumed): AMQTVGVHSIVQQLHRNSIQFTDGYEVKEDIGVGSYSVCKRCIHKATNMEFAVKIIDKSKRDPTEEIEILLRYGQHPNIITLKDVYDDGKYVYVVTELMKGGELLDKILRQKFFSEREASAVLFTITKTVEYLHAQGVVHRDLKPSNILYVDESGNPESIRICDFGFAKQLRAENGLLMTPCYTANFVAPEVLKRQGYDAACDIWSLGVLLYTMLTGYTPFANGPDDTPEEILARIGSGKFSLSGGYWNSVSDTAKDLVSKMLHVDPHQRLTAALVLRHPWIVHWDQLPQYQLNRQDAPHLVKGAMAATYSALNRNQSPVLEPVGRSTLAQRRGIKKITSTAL

Row | SMILES | IC50 [1] [µM] | IC50 [2] | IC50 ([3]; duplicate) [µM] | remaining activity at 1 µM [4] [%] | remaining activity at 10 µM [4] [%] | remaining activity at 1 µM [5] [%] | remaining activity at 10 µM [5] [%] | IC50 at 48 h [6] [µM] | IC50 at 48 h [7] [µM] | toxicity towards fibroblasts [8] | other results
1 | Cc1ccc(-n2cc(COc3cccc4cnc(Nc5cc(Cl)cc(Cl)c5)nc34)nn2)c([N+](=O)[O-])c1 [7b, N-(3,5-dichlorophenyl)-8-((1-(4-methyl-2-nitrophenyl)-1H-1,2,3-triazol-4-yl)methoxy)quinazolin-2-amine] | 0.097 | 3.31 µM | 0.38 | 80 | 34 | 87 | 84 | > 25 | > 25 | non-toxic | –
2 | O=[N+]([O-])c1cc(CO)ccc1-n1cc(COc2cccc3cnc(Nc4cccc(Cl)c4)nc23)nn1 [12e, 4-(4-(((2-((3-Chlorophenyl)amino)quinazolin-8-yl)oxy)methyl)-1H-1,2,3-triazol-1-yl)-3-nitrobenzyl alcohol] | 0.05 | 7.5 µM and 7.49 µM | 0.195 | 74 | 21 | 96 | 69 | 7 | 6 | moderate toxicity | IC50 [3]: 0.15 to 0.2 µM
3 | N[C@H]1CC[C@@H](n2cc(COc3cccc4cnc(Nc5cc(Cl)cc(Cl)c5)nc34)nn2)CC1 [16b, 8-((1-((cis)-4-Aminocyclohexyl)-1H-1,2,3-triazol-4-yl)methoxy)-N-(3,5-dichlorophenyl)quinazolin-2-amine hydrochloride] | 0.02 | 3.26 µM | 0.083 | 61 | 18 | 69 | 15 | 3 | 2 | – | –
4 | Cc1ccc(-n2cc(COc3cccc4cnc(Nc5cccc(Cl)c5)nc34)nn2)c([N+](=O)[O-])c1 [DB18] | – | – | – | – | – | – | – | – | – | – | remaining binding at 1 µM [9]: 97%; remaining binding at 1 µM [10]: 93%; remaining binding at 1 µM [11]: 82%; remaining binding at 1 µM [12]: 94%; remaining binding at 1 µM [13]: 100%; remaining binding at 1 µM [14]: 93%; remaining binding at 1 µM [15]: 88%; remaining binding at 1 µM [16]: 100%; remaining binding at 1 µM [17]: 100%; remaining binding at 1 µM [18]: 100%; remaining binding at 1 µM [19]: 66%; remaining binding at 1 µM [20]: 99%; remaining binding at 1 µM [21]: 100%; remaining binding at 1 µM [22]: 85%; remaining binding at 1 µM [23]: 100%; remaining binding at 1 µM [24]: 100%; remaining binding at 1 µM [25]: 91%; remaining binding at 1 µM [26]: 96%; remaining binding at 1 µM [27]: 100%
5 | COC(=O)c1ccc(-n2cc(COc3cccc4cnc(Nc5cccc(Cl)c5)nc34)nn2)c([N+](=O)[O-])c1 [12f, Methyl 4-(4-(((2-((3-chlorophenyl)amino)quinazolin-8-yl)oxy)methyl)-1H-1,2,3-triazol-1-yl)-3-nitrobenzoate] | – | – | – | 73 | 45 | 73 | 66 | > 25 | > 25 | non-active | –
6 | O=[N+]([O-])c1cc(Br)ccc1-n1cc(COc2cccc3cnc(Nc4cccc(Cl)c4)nc23)nn1 [12d, N-(3-Chlorophenyl)-8-((1-(4-bromo-2-nitrophenyl)-1H-1,2,3-triazol-4-yl)methoxy)quinazolin-2-amine] | – | – | – | 85 | 43 | 85 | 70 | > 25 | > 25 | moderate toxicity | –
7 | O=C(O)c1ccc(-n2cc(COc3cccc4cnc(Nc5cccc(Cl)c5)nc34)nn2)c([N+](=O)[O-])c1 [12g, 4-(4-(((2-((3-Chlorophenyl)amino)quinazolin-8-yl)oxy)methyl)-1H-1,2,3-triazol-1-yl)-3-nitrobenzoic acid] | 0.028 | 0.339 µM | 0.055 | 38 | 21 | 66 | 31 | > 25 | > 25 | non-active | –
